According to ChEMBL document CHEMBL4229447, “Synthesis and evaluation of thiomannosides, potent and orally active FimH inhibitors” (Bioorg Med Chem Lett, 2018):
Values after ≈ are worked out from the molar mass of the structure shown. Active and inactive are the calls of the source. The calls are words filed in the database; no cut-off is given here.

How the values were obtained:
[1] = molecular target: Type 1 fimbrin D-mannose specific adhesin (Escherichia coli K-12) (UniProt P08191); assay: Inhibition of Escherichia coli UTI89 FimH assessed as reduction in […] guinea pig erythrocyte hemagglutination titer
[2] = Oral bioavailability in mouse at 10 mg/kg; type: ADME, organism-based; conditions: in vivo
[3] = Metabolic stability in mouse liver microsomes after 30 mins; type: ADME, microsome; conditions: read-out: Stability
[4] = Solubility of the compound in pH 6.8 JP2 buffer; type: physicochemical
[5] = Lipophilicity, log D of the compound at pH 7.4; type: physicochemical; conditions: buffer
[6] = Drug excretion in mouse urine at 10 mg/kg, po or 2 mg/kg, iv; type: ADME, organism-based; conditions: read-out: Drug excretion
[7] = Permeability of the compound by PAMPA; type: ADME; conditions: read-out: permeability
[8] = molecular target: hERG (KCNH2) (Homo sapiens, UniProt Q12809); assay: Inhibition of human ERG at 100 uM relative to control
[9] = system: Escherichia coli; assay: Antibiofilm activity against Escherichia coli UTI89 preformed biofilms; type: functional, organism-based
[10] = system: Escherichia coli; assay: Antibacterial activity against Escherichia coli UTI89 in mouse prophylactic UTI model assessed as reduction in bacterial count in urinary bladder at 1 to 100 mg/kg, po administered 30 mins prior to infection measured at 2 and 24 hrs post infection; type: functional, organism-based
[11] = Mechanism based inactivation of CYP450 (unknown origin); type: ADME; conditions: human
[12] = system: Escherichia coli; assay: Antibiofilm activity against Escherichia coli UTI89; type: functional, organism-based
[13] = system: Mus musculus; assay: Time at which simulated urine concentration stays above its HAI titer in mouse at 1 to 100 mg/kg, po; type: ADME, organism-based; conditions: in vivo

Type 1 fimbrin D-mannose specific adhesin (Escherichia coli K-12), sequence (P08191 whole entry): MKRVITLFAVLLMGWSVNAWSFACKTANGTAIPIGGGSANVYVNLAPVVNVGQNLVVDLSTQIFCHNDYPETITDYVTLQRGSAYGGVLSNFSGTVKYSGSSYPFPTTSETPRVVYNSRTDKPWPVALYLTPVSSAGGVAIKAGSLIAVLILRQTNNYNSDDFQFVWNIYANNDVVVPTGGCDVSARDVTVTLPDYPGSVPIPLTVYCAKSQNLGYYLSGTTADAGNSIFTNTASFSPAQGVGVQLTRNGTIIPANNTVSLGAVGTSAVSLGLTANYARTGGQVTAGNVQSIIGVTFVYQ
hERG (KCNH2), sequence (Q12809 whole entry): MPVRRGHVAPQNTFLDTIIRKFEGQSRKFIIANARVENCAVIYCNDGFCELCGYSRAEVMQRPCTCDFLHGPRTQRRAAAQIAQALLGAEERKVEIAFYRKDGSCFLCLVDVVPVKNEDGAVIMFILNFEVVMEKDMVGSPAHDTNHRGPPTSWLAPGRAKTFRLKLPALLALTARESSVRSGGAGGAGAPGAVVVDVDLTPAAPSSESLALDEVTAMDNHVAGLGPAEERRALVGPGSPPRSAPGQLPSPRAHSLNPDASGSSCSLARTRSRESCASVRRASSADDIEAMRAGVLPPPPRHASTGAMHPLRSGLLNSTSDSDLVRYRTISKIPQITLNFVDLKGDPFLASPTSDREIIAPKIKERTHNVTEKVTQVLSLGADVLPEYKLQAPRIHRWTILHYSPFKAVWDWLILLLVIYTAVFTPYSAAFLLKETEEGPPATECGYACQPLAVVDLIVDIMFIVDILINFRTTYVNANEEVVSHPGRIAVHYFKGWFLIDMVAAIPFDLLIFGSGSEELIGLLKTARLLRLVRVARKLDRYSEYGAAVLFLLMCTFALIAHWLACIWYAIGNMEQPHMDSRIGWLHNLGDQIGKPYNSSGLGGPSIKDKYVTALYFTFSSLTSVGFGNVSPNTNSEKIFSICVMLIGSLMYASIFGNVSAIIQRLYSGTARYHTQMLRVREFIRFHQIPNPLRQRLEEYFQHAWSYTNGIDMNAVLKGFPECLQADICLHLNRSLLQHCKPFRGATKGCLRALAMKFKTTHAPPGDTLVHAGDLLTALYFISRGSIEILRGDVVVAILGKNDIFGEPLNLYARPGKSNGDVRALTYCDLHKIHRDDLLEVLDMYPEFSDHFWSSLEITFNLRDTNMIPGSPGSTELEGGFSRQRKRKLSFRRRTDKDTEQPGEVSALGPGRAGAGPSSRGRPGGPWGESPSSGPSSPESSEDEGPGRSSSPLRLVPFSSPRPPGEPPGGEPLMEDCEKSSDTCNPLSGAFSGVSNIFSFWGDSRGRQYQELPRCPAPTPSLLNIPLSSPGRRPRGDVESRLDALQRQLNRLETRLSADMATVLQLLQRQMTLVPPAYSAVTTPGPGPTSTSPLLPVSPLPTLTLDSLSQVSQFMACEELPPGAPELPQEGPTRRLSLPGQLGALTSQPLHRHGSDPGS

| SMILES | EC90 [1] [nM] | bioavailability [2] [%] | remaining at 0.5 h [3] [%] | solubility [4] [µg/mL] | logD [5] | dose excreted [6] [%] | Papp [7] [×10⁻⁶ cm/s] | inhibition at 100 µM [8] [%] | IC50 [9] [µg/mL] | Activity [10] | Activity [11] | IC50 [12] [µg/mL] | Time [13] |
| --- | --- | --- | --- | --- | --- | --- | --- | --- | --- | --- | --- | --- | --- |
| CSc1ccc(-c2ccc(S[C@H]3O[C@H](CO)[C@@H](O)[C@H](O)[C@@H]3O)c(C)c2)cn1 | 600 | 23 | 61 | 150 (≈ 366 µM) | 2.3 | 11.7 | ≤ 12 | – | – | – | – | – | – |
| Cc1cc(-c2ccc(=O)n(CC(C)(C)O)c2)ccc1S[C@H]1O[C@H](CO)[C@@H](O)[C@H](O)[C@@H]1O | 1250 | 0 | 97 | 729 (≈ 1610 µM) | 0.5 | 5.3 | ≤ 12 | – | – | – | – | – | – |
| Cc1cc(-c2ccc(=O)n(CC(C)C)c2)ccc1S[C@H]1O[C@H](CO)[C@@H](O)[C@H](O)[C@@H]1O | 2500 | 1 | 95 | 863 (≈ 1980 µM) | 1.5 | 8.1 | ≤ 12 | – | – | – | – | – | – |
| Cc1cc(-c2ccc(=O)n(-c3ccccc3)c2)ccc1S[C@H]1O[C@H](CO)[C@@H](O)[C@H](O)[C@@H]1O | 1250 | 15 | 93 | 142 (≈ 312 µM) | 1.2 | 24 | ≤ 12 | – | – | – | – | – | – |
| Cc1cc(-c2ccc(=O)n(C)c2)ccc1S[C@H]1O[C@H](CO)[C@@H](O)[C@H](O)[C@@H]1O | 1250 | – | 72 | 719 (≈ 1830 µM) | 0.3 | – | ≤ 12 | – | – | – | – | – | – |
| CCCCn1ccc(-c2ccc(S[C@H]3O[C@H](CO)[C@@H](O)[C@H](O)[C@@H]3O)c(C)c2)cc1=O | 600 | 1 | 60 | 582 (≈ 1340 µM) | 1.8 | – | ≤ 12 | – | – | – | – | – | – |
| CCCCn1cc(-c2ccc(S[C@H]3O[C@H](CO)[C@@H](O)[C@H](O)[C@@H]3O)c(C)c2)ccc1=O | 600 | 3 | 95 | 740 (≈ 1700 µM) | 1.7 | 7 | ≤ 12 | – | – | – | – | – | – |
| CCn1cc(-c2ccc(S[C@H]3O[C@H](CO)[C@@H](O)[C@H](O)[C@@H]3O)c(C)c2)ccc1=O | 2500 | – | 100 | 668 (≈ 1640 µM) | 0.7 | – | ≤ 12 | – | – | – | – | – | – |
| Cc1cc(-c2ccc(N3CCC3)nc2)ccc1S[C@H]1O[C@H](CO)[C@@H](O)[C@H](O)[C@@H]1O | 1250 | 14 | 91 | 217 (≈ 518 µM) | 2.1 | 7 | – | – | – | – | – | – | – |
| COc1ccc(-c2ccc(S[C@H]3O[C@H](CO)[C@@H](O)[C@H](O)[C@@H]3O)c(C)c2)cn1 | 310 | 86 | 100 | 663 (≈ 1690 µM) | 2.1 | 2.8 | 12 to 30 | 10.8 | 0.56 (≈ 1.42 µM) | Active | Not Active | 0.3 (≈ 0.762 µM) | <= 24 hr |
